# Results reported in US8211901B2, “Naphthamide derivatives as multi-target protein kinase inhibitors and histone deacetylase inhibitors” (Shenzhen Chipscreen Biosciences Ltd., priority 2009, dated 2012).
# Experiments:
# HUVEC cells = assay: VEGF dependent cell proliferation (MTS); type: cell-based; details: Homo sapiens, VEGF 165 50 ng/ml, 72 hours, serum-free medium, read-out: GI50 nM (VEGF ligand-dependent cell proliferation)
# Method: VEGF Dependent Cell Proliferation:
# HUVEC cells were plated into 96-well plates at 6,000 per well and incubated with serum-free medium for 2 hours. Compounds and VEGF 165 (50 ng/ml) were added and incubated for 72 hours in serum-free medium. The effects on proliferation were determined by addition of MTS reagent (Promega) according to the instruction, incubation for 2 hours at 37° C. in CO2 incubator, and record the absorbance at 490 nm using an ELISA plate reader.
# Class I HDAC = assay: P21 reporter gene assay in HeLa cells; type: cell-based; details: 24 hours
# Method: HDAC subtype selectivity inhibition assay of tested compounds was carried out by several reporter gene assays experiments. Briefly, HeLa cells were seeded in 96-well plates the day before transfection to give a confluence of 50-80%. Cells were transfected with one of reporter gene plasmid containing a promoter sequence or response element upstream of a luciferase gene construct using FuGene6 transfection reagent according to the manufacturer's instruction (Roche). The promoters or response elements including p21-promoter was fused upstream to the luciferase gene reporter construct. For normalizing the transfection efficiency, a GFP expression plasmid was cotransfected. Cells were allowed to express protein for 24 hours followed by addition of individual compounds or the vehicle (DMSO). 24 hours later the cells were harvested, and the luciferase assay and GFP assay were performed using corresponding assay kits according to the manufacturer's instructions (Promega).
# human PDGFRβ = target: T1, human PDGFRβ (Homo sapiens, UniProt P09619); assay: PDGF dependent cell proliferation (MTS); type: cell-based; details: PDGFRβ NIH-3T3 cells, PDGF BB 50 ng/ml, 72 hours, serum-free medium; read-out: GI50 nM (PDGF ligand-dependent cell proliferation)
# T1 construct: expressed in transfected cells
# Method: PDGF Dependent Cell Proliferation:
# NIH-3T3 mouse fibroblasts cell line engineered to stably express human PDGFIRβ was constructed and used to evaluate PDGF dependent cell proliferation. PDGFRβ NIH-3T3 cells were plated into 96-well plates at 5,000 per well and incubated with serum-free medium for 24 hours. Compounds and PDGF BB (50 ng/ml) were added and incubated for 72 hours in serum-free medium. The effects on proliferation were determined by addition of MTS reagent (Promega) according to the instruction, incubation for 2 hours at 37° C. in CO2 incubator, and record the absorbance at 490 nm using an ELISA plate reader.
# [1] = system: total HDAC enzyme (HeLa extract); assay: In vitro inhibition of total HDAC enzyme activity (HDAC Fluorimetric Assay/Drug Discovery Kit); type: biochemical
# Method: Measurement of In Vitro Inhibition of Total HDAC Enzyme Activity:
# The in vitro inhibition of total HDAC enzyme was determined by HDAC Fluorimetric Assay/Drug Discovery Kit (BIOMOL) according to manufacture's instruction. • 1. Add Assay buffer, diluted trichostatin A or test inhibitor to appropriate wells of the microtiter plate. Following table lists examples of various assay types and the additions required for each test.
# • 2. Add diluted HeLa extract or other HDAC sample to all wells except those that are to be “No Enzyme Controls” (Blank). • 3. Allow diluted Fluor de Lys™ Substrate and the samples in the microtiter plate to equilibrate to assay temperature (25° C.). • 4. Initiate HDAC reactions by adding diluted substrate (25 μl) to each well and mixing thoroughly. • 5. Allow HDAC reactions to proceed for desired length of time and then stop them by addition of Fluor de Lys™ Developer (50 μl). Incubate plate at room temperature (25° C.) for 10-15 min. • 6. Read samples in a microtiter-plate reading fluorimeter capable of excitation at a wavelength in the range 350-380 nm and detection of emitted light in the range 440-460 nm. Measurement of In Vivo Inhibition of HDAC Subtype Activity: […]
# HCT-8 = assay: Tumor cell proliferation (MTS), HCT-8; type: cell-based; details: Homo sapiens, 72 hours, complete medium
# Method: (§1) Measurement of In Vivo Cell Proliferation:
# (§2) Tumor cells were trypsinized and plated into 96-well plates at 3,000 per well and incubated in complete medium with 10% FBS for 24 hours. Compounds were added over a final concentration range of 100 μmol/L to 100 nmol/L in 0.1% DMSO and incubated for 72 hours in complete medium. The effects on proliferation were determined by addition of MTS reagent (Promega) according to the instruction, incubation for 2 hours at 37° C. in CO2 incubator, and record the absorbance at 490 nm using an ELISA plate reader.
# (§3) Human Cell Lines are Listed Below:
# HCT-8: Ileocecal colorectal adenocarcinoma
# A549 = assay: Tumor cell proliferation (MTS), A549; type: cell-based; details: Homo sapiens, 72 hours, complete medium
# Method: as §1, §2, §3
# A549: Non small cell lung carcinoma
# Bel-7402 = assay: Tumor cell proliferation (MTS), Bel-7402; type: cell-based; details: Homo sapiens, 72 hours, complete medium
# Method: as §1, §2, §3
# Bel-7402: Hepatocellular carcinoma
# MCF-7 = assay: Tumor cell proliferation (MTS), MCF-7; type: cell-based; details: Homo sapiens, MCF7; 72 hours, complete medium
# Method: as §1, §2, §3
# MCF-7: Mammary gland adenocarcinoma
# A-498 = assay: Tumor cell proliferation (MTS), A-498; type: cell-based; details: Homo sapiens, A498; 72 hours, complete medium
# Method: as §1, §2
# T1 sequence (P09619 33-1106): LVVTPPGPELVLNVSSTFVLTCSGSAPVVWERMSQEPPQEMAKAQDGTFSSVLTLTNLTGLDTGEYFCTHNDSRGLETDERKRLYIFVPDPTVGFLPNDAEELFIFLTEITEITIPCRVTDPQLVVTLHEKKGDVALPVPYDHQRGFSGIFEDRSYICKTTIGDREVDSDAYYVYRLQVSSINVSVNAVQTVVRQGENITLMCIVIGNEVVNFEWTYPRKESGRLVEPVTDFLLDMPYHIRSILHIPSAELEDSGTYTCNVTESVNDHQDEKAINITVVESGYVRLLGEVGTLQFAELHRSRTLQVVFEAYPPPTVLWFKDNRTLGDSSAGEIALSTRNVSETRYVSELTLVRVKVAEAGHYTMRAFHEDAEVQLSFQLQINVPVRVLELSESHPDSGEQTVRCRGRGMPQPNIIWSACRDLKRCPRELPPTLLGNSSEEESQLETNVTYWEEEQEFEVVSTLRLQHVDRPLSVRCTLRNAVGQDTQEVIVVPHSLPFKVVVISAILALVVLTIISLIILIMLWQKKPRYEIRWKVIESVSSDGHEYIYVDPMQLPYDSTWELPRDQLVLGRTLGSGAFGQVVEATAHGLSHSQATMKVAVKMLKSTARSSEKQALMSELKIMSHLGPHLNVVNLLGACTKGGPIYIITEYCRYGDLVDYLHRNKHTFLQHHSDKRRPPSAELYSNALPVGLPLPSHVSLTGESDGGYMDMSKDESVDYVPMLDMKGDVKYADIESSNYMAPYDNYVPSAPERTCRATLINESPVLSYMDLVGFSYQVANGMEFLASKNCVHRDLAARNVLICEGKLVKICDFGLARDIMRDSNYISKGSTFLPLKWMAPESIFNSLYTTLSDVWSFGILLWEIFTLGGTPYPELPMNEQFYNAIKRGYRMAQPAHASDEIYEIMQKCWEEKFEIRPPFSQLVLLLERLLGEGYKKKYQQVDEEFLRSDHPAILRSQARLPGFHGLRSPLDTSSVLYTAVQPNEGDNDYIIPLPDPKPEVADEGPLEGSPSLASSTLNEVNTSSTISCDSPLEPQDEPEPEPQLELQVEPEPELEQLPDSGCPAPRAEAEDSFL
compound,measurement,setting,value
"COc1cc2ncnc(Oc3ccc4c(C(=O)Nc5ccc(Cl)cc5N)cccc4c3)c2cc1OC [Example 20, N-(2-amino-4-chlorophenyl)-6-(6,7-dimethoxyquinazolin-4-yloxy)-1-naphthamide]",GI50,HUVEC cells,6 nM
same,Class I HDAC (P21 reporter assay) Fold Induction at 10 μM,Class I HDAC,1.5 Fold
same,GI50,human PDGFRβ,23 nM
same,% inhibition of total HDAC enzyme activity at 30 μM,[1],21.9%
"COc1cc2ncnc(Oc3ccc4c(C(=O)NCc5ccc(C(=O)Nc6ccccc6N)cc5)cccc4c3)c2cc1OC [Example 23, N-(4-((2-aminophenyl)carbamoyl)benzyl)-6-(6,7-dimethoxyquinazolin-4-yloxy)-1-naphthamide]",GI50,HCT-8,5.7 µM
same,GI50,A549,30 µM
same,GI50,Bel-7402,30 µM
same,GI50,MCF-7,4.3 µM
same,GI50,HUVEC cells,18 nM
same,Class I HDAC (P21 reporter assay) Fold Induction at 10 μM,Class I HDAC,11.3 Fold
same,GI50,human PDGFRβ,148 nM
same,GI50,A-498,14.7 µM
same,% inhibition of total HDAC enzyme activity at 30 μM,[1],49.4%
"COc1ccc2c(Oc3ccc4c(C(=O)Nc5ccc(F)cc5N)cccc4c3)ccnc2c1 [Example 32, N-(2-amino-4-fluorophenyl)-6-(7-methoxyquinolin-4-yloxy)-1-naphthamide]",GI50,HCT-8,6.6 µM
same,GI50,A549,8.3 µM
same,GI50,Bel-7402,17.3 µM
same,GI50,MCF-7,15.9 µM
same,GI50,HUVEC cells,2 nM
same,Class I HDAC (P21 reporter assay) Fold Induction at 10 μM,Class I HDAC,1.8 Fold
same,GI50,human PDGFRβ,20 nM
same,GI50,A-498,7.5 µM
same,% inhibition of total HDAC enzyme activity at 30 μM,[1],21.7%
COc1cc2nccc(Oc3ccc4c(C(=O)NCc5ccc(C(=O)Nc6ccccc6N)cn5)cccc4c3)c2cc1OC [Example 38],GI50,HCT-8,8 µM
same,GI50,A549,30 µM
same,GI50,Bel-7402,30 µM
same,GI50,MCF-7,9.4 µM
same,GI50,HUVEC cells,25 nM
same,Class I HDAC (P21 reporter assay) Fold Induction at 10 μM,Class I HDAC,3.1 Fold
same,GI50,human PDGFRβ,74 nM
same,GI50,A-498,6.9 µM
same,% inhibition of total HDAC enzyme activity at 30 μM,[1],39.3%
COc1cc2ncnc(Oc3ccc4c(C(=O)NCc5ccc(C(=O)Nc6ccccc6N)cn5)cccc4c3)c2cc1OC [Example 25],GI50,HCT-8,4.9 µM
same,GI50,A549,30 µM
same,GI50,Bel-7402,30 µM
same,GI50,MCF-7,6.1 µM
same,GI50,HUVEC cells,13 nM
same,Class I HDAC (P21 reporter assay) Fold Induction at 10 μM,Class I HDAC,12.1 Fold
same,GI50,human PDGFRβ,69 nM
same,GI50,A-498,14.7 µM
same,% inhibition of total HDAC enzyme activity at 30 μM,[1],47.9%
"Nc1ccccc1NC(=O)c1cccc2cc(Oc3ccnc4cc(Cl)ccc34)ccc12 [Example 41, N-(2-aminophenyl)-6-(7-chloroquinolin-4-yloxy)-1-naphthamide]",GI50,HUVEC cells,105 nM
same,Class I HDAC (P21 reporter assay) Fold Induction at 10 μM,Class I HDAC,1.1 Fold
same,GI50,human PDGFRβ,479 nM
same,% inhibition of total HDAC enzyme activity at 30 μM,[1],19.3%
"COc1cc2ncnc(Oc3ccc4c(C(=O)Nc5ccc(C(F)(F)F)cc5N)cccc4c3)c2cc1OC [Example 22, N-(2-amino-4-trifluoromethylphenyl)-6-(6,7-dimethoxyquinazolin-4-yloxy)-1-naphthamide]",GI50,HUVEC cells,3 nM
same,Class I HDAC (P21 reporter assay) Fold Induction at 10 μM,Class I HDAC,1.1 Fold
same,GI50,human PDGFRβ,372 nM
same,% inhibition of total HDAC enzyme activity at 30 μM,[1],17%
"Nc1ccccc1NC(=O)c1cccc2cc(Oc3ccnc4c(C(F)(F)F)cccc34)ccc12 [Example 42, N-(2-aminophenyl)-6-(8-trifluoromethylquinolin-4-yloxy)-1-naphthamide]",GI50,HUVEC cells,1000 nM
same,Class I HDAC (P21 reporter assay) Fold Induction at 10 μM,Class I HDAC,1.3 Fold
same,GI50,human PDGFRβ,48 nM
same,% inhibition of total HDAC enzyme activity at 30 μM,[1],6.2%
"COc1cc2ncnc(Oc3ccc4c(C(=O)Nc5ccc(C)cc5N)cccc4c3)c2cc1OC [Example 18, N-(2-amino-4-methylphenyl)-6-(6,7-dimethoxyquinazolin-4-yloxy)-1-naphthamide]",GI50,HUVEC cells,7 nM
same,Class I HDAC (P21 reporter assay) Fold Induction at 10 μM,Class I HDAC,1.1 Fold
same,GI50,human PDGFRβ,15 nM
same,% inhibition of total HDAC enzyme activity at 30 μM,[1],17.1%
